Data set [1] relates to Puccinia recondita f. sp. Tritici. The data set is described as follows: Puccinia recondita f. sp. tritici / wheat / leaf disc curative (brown rust). Particulars: foliar, 200 ppm in the applied formulation, wheat leaf segments cv. Kanzler, applied 1 day after inoculation, compared to untreated, assessed 6 to 8 days after application, read-out: disease control. In kind it is in vivo. In short, it runs like this: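 Spray application came one day after spore inoculation of Kanzler wheat leaf segments kept on agar. Conditions: 19° C, 75% relative humidity, dark before treatment and 12 h light/12 h dark after. Efficacy = % disease control compared with untreated, 6–8 days post-application.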

The test system of data set [2] is Glomerella lagenarium (Colletotrichum lagenarium). As to the kind of experiment: Glomerella lagenarium (Colletotrichum lagenarium) liquid culture / cucumber / preventative (anthracnose). In kind it is cell-based. Particulars: Colletotrichum orbiculare; 20 ppm in the applied formulation; conidia in PDB nutrient broth, 24° C.; 3 to 4 days after application; compared to untreated; read-out: disease control (inhibition of growth measured photometrically). In short, it runs like this: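 Cryostored conidia in potato dextrose broth added to compound diluted from DMSO solution, 96-well format. Plates incubated at 24 °C. Growth inhibition read photometrically 3 to 4 days after application, as percent activity versus untreated check.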

For data set [3], the system named is Phakopsora pachyrhizi. As to the kind of experiment: Phakopsora pachyrhizi / soybean / leaf disc preventative (Asian soybean rust). In kind it is in vivo. Particulars: foliar, 200 ppm in the applied formulation, soybean leaf disks, inoculated one day after application, compared to untreated, assessed 12 to 14 days after application, read-out: disease control. As to the method:
Leaf disks or leaf segments of various plant species are cut from plants grown in a greenhouse. The cut leaf disks or segments are placed in multiwell plates (24-well format) onto water agar. The leaf disks are sprayed with a test solution before (preventative) or after (curative) inoculation. Compounds to be tested are prepared as DMSO solutions (max. 10 mg/ml) which are diluted to the appropriate concentration with 0.025% Tween20 just before spraying. The inoculated leaf disks or segments are incubated under defined conditions (temperature, relative humidity, light, etc.) according to the respective test system. A single evaluation of disease level is carried out 3 to 14 days after inoculation, depending on the pathosystem. Percent disease control relative to the untreated check leaf disks or segments is then calculated.
Soybean leaf disks are placed on water agar in multiwell plates (24-well format) and sprayed with the formulated test compound diluted in water. One day after application leaf discs are inoculated by spraying a spore suspension on the lower leaf surface. After an incubation period in a climate cabinet of 24-36 hours in darkness at 20° C. and 75% rh leaf disc are kept at 20° C. with 12 h light/day and 75% rh. The activity of a compound is assessed as percent disease control compared to untreated when an appropriate level of disease damage appears in untreated check leaf disks (12 to 14 days after application).
The following compounds at 200 ppm in the applied formulation give at least 80% disease control in this test when compared to untreated control leaf disks under the same conditions, which show extensive disease development.

For data set [4], the system named is Puccinia recondita f. sp. Tritici. The data set is described as follows: Puccinia recondita f. sp. tritici / wheat / leaf disc preventative (brown rust). In kind it is in vivo. Particulars: foliar, 200 ppm in the applied formulation, wheat leaf segments cv. Kanzler, inoculated 1 day after application, compared to untreated, assessed 7 to 9 days after application, read-out: disease control. In a few lines:
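Compound, diluted from DMSO solution into aqueous 0.025% Tween20, is sprayed at 200 ppm onto cut wheat segments (cv. Kanzler) placed on water agar. One day on, segments receive a fungal spore suspension and are incubated at 19° C., 75% rh, 12 h photoperiod, with % control vs untreated scored at 7–9 days.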

By inhibition is commonly meant how much of the control response was suppressed. As usually defined, the melting point is the temperature of the solid-liquid transition. As to `CCS(=O)(=O)N(Cc1ccc(-c2noc(C(F)(F)F)n2)cc1)C1CC1` [Compound 1.1, N-cyclopropyl-N-[[4-[5-(trifluoromethyl)-1,2,4-oxadiazol-3-yl]phenyl]methyl] ethanesulfonamide], the melting point lay in the range of 86 to 88 °C. In addition, the pest or weed control at 200 ppm in data set [1] was not below 80%. In addition, in data set [2], the inhibition at 20 ppm was not below 80%. Moreover, in data set [3], the pest or weed control at 200 ppm was not below 80%. Besides, the pest or weed control at 200 ppm in data set [4] is not below 80%.
Molecule `O=S(=O)(C1CC1)N(Cc1ccc(-c2noc(C(F)(F)F)n2)cc1)C1CC1` [Compound 1.2, N-cyclopropyl-N-[[4-[5-(trifluoromethyl)-1,2,4-oxadiazol-3-yl]phenyl]methyl] cyclopropanesulfonamide] showed a melting point of 90 to 92 °C. Also, in data set [2], the inhibition at 20 ppm is not below 80%. In data set [3], the pest or weed control at 200 ppm is not below 80%. The pest or weed control at 200 ppm in data set [4] is not below 80%.
`CCS(=O)(=O)N(Cc1ccc(-c2noc(C(F)(F)F)n2)cc1)OC` [Compound 1.3, N-methoxy-N-[[4-[5-(trifluoromethyl)-1,2,4-oxadiazol-3-yl]phenyl]methyl] ethanesulfonamide] showed a melting point of 44 to 46 °C. In data set [1], the pest or weed control at 200 ppm is not below 80%. Moreover, in data set [2], the inhibition at 20 ppm is not below 80%. In addition, the pest or weed control at 200 ppm in data set [3] was not below 80%. Besides, the pest or weed control at 200 ppm in data set [4] is not below 80%.
`CON(Cc1ccc(-c2noc(C(F)(F)F)n2)cc1)S(C)(=O)=O` [Compound 1.5, N-methoxy-N-[[4-[5-(trifluoromethyl)-1,2,4-oxadiazol-3-yl]phenyl]methyl] methanesulfonamide] gave a melting point of 94 to 96 °C. Also, the pest or weed control at 200 ppm in data set [1] was not below 80%. In data set [2], the inhibition at 20 ppm was not below 80%.
Take `O=S(=O)(N1CCOCC1)N(Cc1ccc(-c2noc(C(F)(F)F)n2)cc1)C1CC1` [Compound 1.7, N-cyclopropyl-N-[[4-[5-(trifluoromethyl)-1,2,4-oxadiazol-3-yl]phenyl]methyl] morpholine-4-sulfonamide]: the melting point lay within 99 to 101 °C. Also, the inhibition at 20 ppm in data set [2] is not below 80%. Besides, the pest or weed control at 200 ppm in data set [4] is not below 80%.
With `CS(=O)(=O)N(Cc1ccc(-c2noc(C(F)(F)F)n2)cc1)C1CC1` [Compound 1.8, N-cyclopropyl-N-[[4-[5-(trifluoromethyl)-1,2,4-oxadiazol-3-yl]phenyl]methyl] methanesulfonamide], the melting point was 84 to 86 °C. Moreover, in data set [1], the pest or weed control at 200 ppm was not below 80%. In addition, in data set [2], the inhibition at 20 ppm was not below 80%. Moreover, the pest or weed control at 200 ppm in data set [3] was not below 80%. Also, the pest or weed control at 200 ppm in data set [4] is not below 80%.
`CN(Cc1ccc(-c2noc(C(F)(F)F)n2)cc1)S(=O)(=O)C1CC1` [Compound 1.10, N-methyl-N-[[4-[5-(trifluoromethyl)-1,2,4-oxadiazol-3-yl]phenyl]methyl] cyclopropanesulfonamide] displayed a melting point of 102 to 105 °C. Moreover, the pest or weed control at 200 ppm in data set [1] was not below 80%. Besides, the inhibition at 20 ppm in data set [2] is not below 80%. For the same molecule, the pest or weed control at 200 ppm in data set [3] was not below 80%. Besides, the pest or weed control at 200 ppm in data set [4] is not below 80%.
`CN(Cc1ccc(-c2noc(C(F)(F)F)n2)cc1)S(=O)(=O)Cc1ccccc1` [Compound 1.14, N-methyl-1-phenyl-N-[[4-[5-(trifluoromethyl)-1,2,4-oxadiazol-3-yl]phenyl]methyl] methanesulfonamide] yielded a melting point of 109 to 111 °C. The inhibition at 20 ppm in data set [2] is not below 80%. In addition, the pest or weed control at 200 ppm in data set [4] is not below 80%.
For the molecule `CCCNS(=O)(=O)N(C)Cc1ccc(-c2noc(C(F)(F)F)n2)cc1` [Compound 1.23, 3-[4-[[methyl (propylsulfamoyl)amino]methyl]phenyl]-5-(trifluoromethyl)-1,2,4-oxadiazole], the pest or weed control at 200 ppm in data set [1], in data set [3] and in data set [4] was not below 80% each time. For the same molecule, the inhibition at 20 ppm in data set [2] is not below 80%.
For `CON(Cc1ccc(-c2noc(C(F)(F)F)n2)c(F)c1)S(C)(=O)=O` [Compound 1.101, N-[[3-fluoro-4-[5-(trifluoromethyl)-1,2,4-oxadiazol-3-yl]phenyl]methyl]-N-methoxy-methanesulfonamide], the pest or weed control at 200 ppm in data set [1] and in data set [3] was not below 80% each time. Further, the inhibition at 20 ppm in data set [2] was not below 80%.
Turning to `CCN(Cc1ccc(-c2noc(C(F)(F)F)n2)c(F)c1)S(C)(=O)=O` [Compound 1.102, N-ethyl-N-[[3-fluoro-4-[5-(trifluoromethyl)-1,2,4-oxadiazol-3-yl]phenyl]methyl] methanesulfonamide], the pest or weed control at 200 ppm in data set [1], in data set [3] and in data set [4] was not below 80% throughout. Besides, the inhibition at 20 ppm in data set [2] is not below 80%.
In the case of `CCCS(=O)(=O)Nc1ccc(-c2noc(C(F)(F)F)n2)cc1` [Compound 2.38, N-[4-[5-(trifluoromethyl)-1,2,4-oxadiazol-3-yl]phenyl]propane-1-sulfonamide], the melting point is 65 to 75 °C. The inhibition at 20 ppm in data set [2] is not below 80%. Further, in data set [3], the pest or weed control at 200 ppm is not below 80%.
`O=S(=O)(NCc1ccc(-c2noc(C(F)(F)F)n2)cc1)c1ccccc1` [Compound 3.1, N-[[4-[5-(trifluoromethyl)-1,2,4-oxadiazol-3-yl]phenyl]methyl] benzenesulfonamide]: the melting point was in the range of 116 to 124 °C. The inhibition at 20 ppm in data set [2] is not below 80%. The pest or weed control at 200 ppm in data set [4] is not below 80%.
In turn, `O=S(=O)(NCc1ccc(-c2noc(C(F)(F)F)n2)cc1)c1ccccc1F` [Compound 3.7, 2-fluoro-N-[[4-[5-(trifluoromethyl)-1,2,4-oxadiazol-3-yl]phenyl]methyl] benzenesulfonamide] had a melting point of 120 to 123 °C. In addition, the inhibition at 20 ppm in data set [2] was not below 80%. Also, the pest or weed control at 200 ppm in data set [3] was not below 80%. Also, the pest or weed control at 200 ppm in data set [4] is not below 80%.
In the case of `O=S(=O)(NCc1ccc(-c2noc(C(F)(F)F)n2)cc1)N1CCOCC1` [Compound 3.8, N-[[4-[5-(trifluoromethyl)-1,2,4-oxadiazol-3-yl]phenyl]methyl] morpholine-4-sulfonamide], the melting point lay within 108 to 110 °C. The pest or weed control at 200 ppm in data set [1] was not below 80%. Besides, the inhibition at 20 ppm in data set [2] was not below 80%. In addition, the pest or weed control at 200 ppm in data set [4] is not below 80%.
As for `O=S(=O)(Nc1ccc(-c2noc(C(F)(F)F)n2)cc1)C1CC1` [Compound 3.33, N-[4-[5-(trifluoromethyl)-1,2,4-oxadiazol-3-yl]phenyl]cyclo-propanesulfonamide], the melting point was 130 to 140 °C. The inhibition at 20 ppm in data set [2] was not below 80%. In addition, the pest or weed control at 200 ppm in data set [3] is not below 80%. Besides, the pest or weed control at 200 ppm in data set [4] was not below 80%.
Molecule `O=S(=O)(Nc1ccc(-c2noc(C(F)(F)F)n2)cc1)c1ccccc1` [Compound 3.35, N-[4-[5-(trifluoromethyl)-1,2,4-oxadiazol-3-yl]phenyl]benzene-sulfonamide] gave a melting point of 115 to 130 °C. The inhibition at 20 ppm in data set [2] was not below 80%. For the same molecule, the pest or weed control at 200 ppm in data set [3] is not below 80%. In data set [4], the pest or weed control at 200 ppm was not below 80%.
On to `CCN(C(C)c1ccc(-c2noc(C(F)(F)F)n2)cc1)S(C)(=O)=O` (stereo not shown) [Compound 4.1, N-ethyl-N-[1-[4-[5-(trifluoromethyl)-1,2,4-oxadiazol-3-yl]phenyl]ethyl] methanesulfonamide], for which the pest or weed control at 200 ppm in data set [1], in data set [3] and in data set [4] was not below 80% throughout. Moreover, the inhibition at 20 ppm in data set [2] was not below 80%.
Consider `CON(C(C)Cc1ccc(-c2noc(C(F)(F)F)n2)cc1)S(C)(=O)=O` (stereo not shown) [Compound 4.2, N-methoxy-N-[1-methyl-2-[4-[5-(trifluoromethyl)-1,2,4-oxadiazol-3-yl]phenyl]ethyl] methanesulfonamide], for which the inhibition at 20 ppm in data set [2] is not below 80%. For the same molecule, the pest or weed control at 200 ppm in data set [3] and in data set [4] was not below 80% throughout.

The record behind these values is patent publication US20210101874A1, “MICROBIOCIDAL OXADIAZOLE DERIVATIVES” (SYNGENTA PARTICIPATIONS AG, priority 2017, published 2021).
